The text below walks through data of patent US4923892A, “Tricyclic aromatic compounds” (Burroughs Wellcome Co., priority 1985, dated 1990).

Data set [1] concerns Compound 48/80 Induced Anaphylactoid Reaction. The data set is described as follows: Anaphylactoid activity: inhibition of compound 48/80 induced anaphylactoid reaction in rats. As to conditions: Rattus norvegicus, po, dosed 2 hours before compound 48/80 (2 mg/kg i.v.), propranolol 5 mg/kg i.p., at least 50 animals, read-out: ED50, dose providing 50% protection against death induced by compound 48/80. Format: in vivo, Wister rats. Here is the method: Non-fasted, Wister rats (180-300 g) were dosed with the test compound (i.p. or p.o.) 2 hours before compound 48/80 challenge. One hour prior to challenge, 5 mg/kg i.p. of propranolol was administered. The anaphylactoid inducing agent, compound 48/80 which is well known in the art of pharmacology, was given intravenously at 2 mg/kg and the animals were monitored for symptoms of respiratory distress.
Data were analyzed by Probit determinations. The response was quantitated by determining the dose of test compound which protected 50% of the animals from death at a given time point.
Agents which block the effects of compound 48/80 are commonly classified as inhibitors of anaphylactic mediators or inhibitors of the release of anaphylic mediators.

The nature of a further data set: LD50 in rats. As to conditions: rat, in vivo.
For a further data set, the system named is histamine. The data set is described as follows: In vivo antihistaminic activity: protection of guinea pigs against histamine aerosol challenge. On the set-up: species or system Guinea pigs (Hartley, male).

Each structure is given as a SMILES string.

Turning to `CN(C)CCC=C1c2ccccc2COc2ccccc21` [Doxepin, 11-(3-(dimethylamino)propylidene)-6,11-dihydrodibenz[b,e]oxepin], the ED50 in data set [1] was 0.15 mg/kg.
As to `CN(C)CC/C=C1/c2ccccc2COc2ccc(C(=O)O)cc21` [Compound 1, (Z)-11-(3-(Dimethylamino)propylidene)-6,11-dihydrodibenz[b,e]oxepin-2-carboxylic acid], the LD50 in “LD50 in rats” (ip) is ~210 mg/kg; in “LD50 in rats” (po), > 500 mg/kg. Further, the ED50 in data set [1] was 1.1 mg/kg; in the data set with histamine (Cavia porcellus, po, 4 hr post dosing, guinea pigs, 0.25% histamine aerosol, at least 40 animals), 0.15 mg/kg. In addition, in the data set with histamine (in words), the “antihistaminic activity in vivo” value is “extremely good antihistaminic activity in vivo”. In the data set on histamine (in words), the “duration of antihistaminic activity” value is recorded as “very long durations of antihistamic activity”.
Regarding `Cc1ccc(/C(=C\CN2CCCC2)c2ccccn2)cc1` [Triprolidine], in data set [1], the ED50 is > 30 mg/kg.

As a reminder, the LD50 is the dose at which mortality reaches 50%. Read a high LD50 as a less toxic substance.
